The values below come from publication PMC9556845 (Frontiers in Microbiology, 2022).

“Also recorded” adds a separate entry of the source. Where two headings read alike, the source gives them in different places.

Format in all cases: biochemical
One experiment has as its target IDH1 R132h (Homo sapiens, UniProt O75874, R132H). The experiment is described as follows: Isocitrate dehydrogenase inhibition assay (NADPH/α-KG, WST-8 readout). The settings on record: for IC50: room temperature 60 min, absorbance 450 nm, repeated three times. As to the method: DMSO was used to configure the compounds into different concentrations as test samples. 2 mm NADPH (3 μl) and 1 m α-Kg (0.1 μl) was added to IDH1 buffer (pH 6.5; 96 μl) solution as reaction substrate in the reaction system. Then, the test samples (2.0 μl), IDH1 R132h (0.4 μl), PMS (0.1 μl) and 15 mM WST-8 (1.0 μl) were successively added to the above mixture and reacted at room temperature for 60 min. AGI-5198 was used as positive control and DMSO as the negative control. The absorption peak of 450 nm was detected by microplate reader. The test was repeated three times for each test samples, and the IC50 was calculated by GraphPad Prism.
We have learned that isocitrate dehydrogenase (IDH) gene mutations are closely related to the occurrence and development of tumors ([Fujii et al., 2016]). IDH mutations mainly occur in malignant tumors such as glioma, acute myeloid leukemia, chondrosarcoma, and intrahepatic cholangiocarcinoma. IDH mutation ultimately promote the occurrence and development of tumors ([Gondim et al., 2019]). Therefore, inhibition of IDH1 R132h activity was screened using the above compounds. AGI-5198 was used as a positive control in this experiment with the IC50 value of 0.04 μg/ml.
On the technique in general: Formazan colour is commonly taken as a measure of viable cells.

Another experiment has as its target T1, PTP1B (Homo sapiens, UniProt P18031).
T1 sequence (P18031 1-435): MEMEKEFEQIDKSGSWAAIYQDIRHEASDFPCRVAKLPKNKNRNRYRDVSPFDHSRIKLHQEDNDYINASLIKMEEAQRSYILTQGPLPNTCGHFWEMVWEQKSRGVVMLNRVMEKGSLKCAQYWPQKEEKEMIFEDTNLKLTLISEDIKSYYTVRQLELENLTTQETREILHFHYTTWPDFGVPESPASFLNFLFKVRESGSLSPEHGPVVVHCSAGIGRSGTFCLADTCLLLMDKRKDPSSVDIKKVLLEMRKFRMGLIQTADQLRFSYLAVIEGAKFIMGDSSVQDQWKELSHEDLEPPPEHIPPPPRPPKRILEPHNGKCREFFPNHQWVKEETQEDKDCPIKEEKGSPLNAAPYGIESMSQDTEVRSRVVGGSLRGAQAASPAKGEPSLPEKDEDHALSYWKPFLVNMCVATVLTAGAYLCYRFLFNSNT
The experiment can be described thus: Inhibition of protein tyrosine phosphatase (PTPs) assay, pNPP substrate: PTP1B. The settings on record: for inhibitory activity against PTP1B (in words): in vitro, compared with Na3VO4. As to the method:
Nitrophenyl phosphate (pNPP) was used as substrate to determine the enzyme inhibition test. Fifty microliter reaction buffer (pH 6.5) including 50 mM HEPES, 100 mM NaCl, 1 mM EDTA, and 1 mM dithiothreitol (DTT) and compounds was added to 96 well plates, and incubate at room temperature for 15 min. Further, 50 μl reaction buffer with 50 mM pNPP was added and incubated at 37°C for 60 min. […] The phosphatase activity was determined by absorbance measured at 405 nm. The test was repeated three times for each compound. The IC50 value was derived from three independent experiments.

The target in a further experiment is T2, TCPTP (Homo sapiens, UniProt P17706).
T2 sequence (P17706 1-415): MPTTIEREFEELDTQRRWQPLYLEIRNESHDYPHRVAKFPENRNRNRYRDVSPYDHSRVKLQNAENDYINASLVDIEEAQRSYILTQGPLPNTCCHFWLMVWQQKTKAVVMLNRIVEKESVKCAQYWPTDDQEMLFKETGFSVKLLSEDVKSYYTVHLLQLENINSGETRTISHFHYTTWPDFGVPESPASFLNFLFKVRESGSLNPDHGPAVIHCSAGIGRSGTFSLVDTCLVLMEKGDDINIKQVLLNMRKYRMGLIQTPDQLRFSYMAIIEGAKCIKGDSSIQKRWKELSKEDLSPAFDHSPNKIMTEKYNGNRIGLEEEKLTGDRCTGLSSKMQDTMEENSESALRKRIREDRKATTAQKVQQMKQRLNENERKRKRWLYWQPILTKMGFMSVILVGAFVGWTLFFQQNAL
The experiment is described as follows: Inhibition of protein tyrosine phosphatase (PTPs) assay, pNPP substrate: TCPTP. From the text: (§1) Protein tyrosine phosphatase (PTPs) plays an important role in many human threatening diseases, such as PTP1B, an effective target for the treatment of type II diabetes; CD45, an effective target for the treatment of leukemia; and TCPTP, a reliable target for the treatment of cancer involved in multiple signaling pathways ([Ruddraraju and Zhang, 2017]). Nitrophenyl phosphate (pNPP) was used as substrate to determine the enzyme inhibition test. Fifty microliter reaction buffer (pH 6.5) including 50 mM HEPES, 100 mM NaCl, 1 mM EDTA, and 1 mM dithiothreitol (DTT) and compounds was added to 96 well plates, and incubate at room temperature for 15 min. Further, 50 μl reaction buffer with 50 mM pNPP was added and incubated at 37°C for 60 min. Na3VO4 was used as positive control and DMSO as the negative control. The phosphatase activity was determined by absorbance measured at 405 nm. The test was repeated three times for each compound. The IC50 value was derived from three independent experiments.
(§2) Protein tyrosine phosphatase (PTPs) plays an important role in many human threatening diseases, such as PTP1B, an effective target for the treatment of type II diabetes; CD45, an effective target for the treatment of leukemia; and TCPTP, a reliable target for the treatment of cancer involved in multiple signaling pathways ([Zhang, 2003]; [Vintonyak et al., 2009]).

Another experiment has as its target T3, CD45 (Homo sapiens, UniProt P08575).
T3 sequence (P08575 26-1306): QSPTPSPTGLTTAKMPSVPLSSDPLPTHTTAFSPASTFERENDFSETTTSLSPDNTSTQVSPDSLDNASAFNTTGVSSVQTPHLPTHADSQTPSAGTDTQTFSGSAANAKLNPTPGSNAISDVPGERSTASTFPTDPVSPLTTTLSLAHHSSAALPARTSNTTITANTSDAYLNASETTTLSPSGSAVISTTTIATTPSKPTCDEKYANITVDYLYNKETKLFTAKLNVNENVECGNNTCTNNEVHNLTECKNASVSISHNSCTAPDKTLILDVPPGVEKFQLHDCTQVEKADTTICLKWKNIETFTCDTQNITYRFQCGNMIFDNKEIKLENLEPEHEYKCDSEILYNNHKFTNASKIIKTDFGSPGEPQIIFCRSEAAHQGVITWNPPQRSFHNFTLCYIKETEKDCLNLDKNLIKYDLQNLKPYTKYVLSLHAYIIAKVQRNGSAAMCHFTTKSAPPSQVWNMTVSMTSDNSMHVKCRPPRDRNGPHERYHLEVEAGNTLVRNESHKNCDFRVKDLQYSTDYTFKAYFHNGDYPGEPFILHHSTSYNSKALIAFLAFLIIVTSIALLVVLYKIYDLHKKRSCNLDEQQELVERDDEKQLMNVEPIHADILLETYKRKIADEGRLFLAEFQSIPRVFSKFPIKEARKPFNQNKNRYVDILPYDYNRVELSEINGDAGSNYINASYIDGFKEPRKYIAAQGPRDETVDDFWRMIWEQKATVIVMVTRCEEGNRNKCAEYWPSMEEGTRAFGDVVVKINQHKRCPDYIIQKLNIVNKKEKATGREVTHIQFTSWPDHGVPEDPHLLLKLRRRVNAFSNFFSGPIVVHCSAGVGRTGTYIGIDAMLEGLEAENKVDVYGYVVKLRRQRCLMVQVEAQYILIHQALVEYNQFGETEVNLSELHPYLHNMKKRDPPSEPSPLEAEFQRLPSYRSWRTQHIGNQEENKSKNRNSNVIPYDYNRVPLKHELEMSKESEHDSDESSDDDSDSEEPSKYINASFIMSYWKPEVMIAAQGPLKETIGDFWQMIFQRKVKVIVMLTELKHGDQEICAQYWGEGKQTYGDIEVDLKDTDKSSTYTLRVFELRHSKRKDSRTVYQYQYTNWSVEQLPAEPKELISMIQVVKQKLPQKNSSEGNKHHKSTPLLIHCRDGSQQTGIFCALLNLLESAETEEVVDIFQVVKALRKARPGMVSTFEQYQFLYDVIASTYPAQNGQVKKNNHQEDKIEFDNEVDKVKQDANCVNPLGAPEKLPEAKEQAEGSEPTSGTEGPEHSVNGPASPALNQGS
The experiment can be described thus: Inhibition of protein tyrosine phosphatase (PTPs) assay, pNPP substrate: CD45.
Text: as §1, §2

Where [1] appears, read: pNPP substrate, pH 6.5, 37°C 60 min, absorbance 405 nm, three independent experiments, read-out: IC50 PTP1B (converted).
Setting [2] is: pNPP substrate, pH 6.5, 37°C 60 min, absorbance 405 nm, three independent experiments, read-out: IC50 TCPTP.
Setting [3] is: pNPP substrate, pH 6.5, 37°C 60 min, absorbance 405 nm, three independent experiments, read-out: IC50 CD45 (converted).
Setting [4] is: pNPP substrate, pH 6.5, 37°C 60 min, absorbance 405 nm, three independent experiments.

Sequence of IDH1 R132h (O75874 whole entry R132H): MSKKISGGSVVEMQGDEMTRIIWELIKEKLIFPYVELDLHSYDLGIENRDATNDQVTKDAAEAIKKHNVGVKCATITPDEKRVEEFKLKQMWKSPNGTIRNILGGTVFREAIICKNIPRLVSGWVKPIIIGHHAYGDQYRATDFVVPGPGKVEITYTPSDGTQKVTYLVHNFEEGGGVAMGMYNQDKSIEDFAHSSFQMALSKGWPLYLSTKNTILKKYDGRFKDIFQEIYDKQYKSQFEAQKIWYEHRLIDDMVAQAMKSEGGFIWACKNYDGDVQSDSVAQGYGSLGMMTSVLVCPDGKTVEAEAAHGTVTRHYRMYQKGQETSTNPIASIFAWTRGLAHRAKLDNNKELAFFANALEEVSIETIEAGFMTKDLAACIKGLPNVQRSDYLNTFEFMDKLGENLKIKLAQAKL

With `Cc1ccccc1C(C(=O)NC1CCCCC1)N(C(=O)Cn1ccnc1C)c1cccc(F)c1` (centres unmarked) [AGI-5198, reference compound], the concentration for half-maximal inhibition (IC50) (as a rule, the point on the concentration scale where inhibition reaches its midpoint) at IDH1 R132h is 0.0865 µM.
Take `COc1cc(O)c2c(c1)C1(CC(O)C(O)C=C1C)OC2=O` (centres unmarked) [Compound 1, Alternafurone A]: on IDH1 R132h, the “inhibitory activity against IDH1 R132h (in words)” value is given as “inhibitory activities” and the IC50 was 101 µM.
Taken in the same sequence, the figures for `COc1cc(O)c2c(c1)C1(CC(O)C(O)C=C1C)OC2=O` (centres unmarked) [Compound 2, Alternafurone B] were “inhibitory activities” and 66.4 µM.
On IDH1 R132h, `COc1cc(O)c2c(c1)C1=CC3(CC(O)C(=O)O3)C(O)CC1(C)OC2=O` (centres unmarked) [Compound 3, Alternapyrone M] gave an IC50 greater than 147 µM.
On to `COC(=O)C1CC2(O)CC3(C)OC(=O)c4c(O)cc(OC)cc4C3=CC2(O)O1` (centres unmarked) [Compound 4, Alternapyrone N], for which, at IDH1 R132h, the “inhibitory activity against IDH1 R132h (in words)” value is reported as “inhibitory activities” and the IC50 is 36 µM.
For `Cc1cc(O)cc2oc(=O)c3c(O)cc(O)cc3c12` [Compound 6, alternariol], the 50% inhibitory concentration (IC50) is 61 µM against PTP1B, 30.2 µM against TCPTP and 22.5 µM at CD45. Also, the “inhibitory activity against TCPTP (in words)” value on TCPTP (in vitro, compared with Na3VO4) is given as “definite inhibitory activity”. Besides, on CD45 (in vitro, compared with Na3VO4), the “inhibitory activity against CD45 (in words)” value is on record as “definite inhibitory activity”.
On to `COc1cc(O)c2c(=O)oc3cc(O)cc(C)c3c2c1` [Compound 7, alternariol 9-methyl ether], for which the figures for the half-inhibitory concentration (IC50) against PTP1B, against TCPTP and on CD45 were 139 µM, 211 µM and 72.8 µM, respectively.
Consider `COc1cc(O)c2c(c1)C1C[C@H](O)[C@@H](O)C[C@@]1(C)OC2=O` (some centres unmarked) [Compound 9, 3-epidihydroaltenuene A], for which the “inhibitory activity against PTP1B (in words)” value against PTP1B is “specific and significant inhibition; also recorded: significant inhibitory activity”. For the same compound, the IC50 at PTP1B (setting [1]) is 3.3 µM; at TCPTP (setting [2]), greater than 340 µM; at CD45 (setting [3]), greater than 340 µM.
In the case of `COc1cc(O)c2c(c1)C1=C[C@H](O)[C@@H](O)C[C@]1(C)OC2=O` [Compound 10, 5-hydroxyepialtenuene], the concentration for half-maximal inhibition (IC50) on PTP1B (setting [1]) was 156 µM; at TCPTP (setting [2]) it was greater than 342 µM; on CD45 (setting [3]), greater than 342 µM.
Take `COc1cc(O)c2c(c1)C1=C[C@@H](O)[C@@H](O)C[C@]1(C)OC2=O` [Compound 11, 5′-epialtenuene]: the IC50 on PTP1B (setting [1]) was 187 µM; at TCPTP (setting [2]), greater than 342 µM; at CD45 (setting [3]), greater than 342 µM.
For `COc1cc(O)c2c(c1)C1=CC(O)C(O)CC1(C)OC2=O` (centres unmarked) [Compound 12, 4′-epialtenuene], on PTP1B, the “inhibitory activity against PTP1B (in words)” value is reported as “inhibitory activity”. The IC50 on PTP1B (setting [1]) is 25.5 µM; on TCPTP (setting [2]) it was greater than 342 µM; at CD45 (setting [3]), greater than 342 µM.
For the compound `COc1cc(O)cc(C2=C(C)C[C@@H](O)C2=O)c1` [Compound 14, (+)-nigrosporaol A], the IC50 at PTP1B (setting [1]) was 383 µM; on TCPTP (setting [2]) it was greater than 427 µM; at CD45 (setting [3]), greater than 427 µM.
Consider `Cc1cc(=O)c2c(C)cc(O)cc2o1` [Compound 17, 2,5-dimethyl-7-hydroxychromone], for which the IC50 at PTP1B (setting [1]) is greater than 526 µM; at TCPTP (setting [2]), greater than 526 µM; at CD45 (setting [3]), 104 µM.
With `Cc1cc(O)cc2oc(CO)cc(=O)c12` [Compound 19, 7-hydroxy-2-hydroxymethyl-5-methyl-4H-chromen-4-one], the IC50 on PTP1B (setting [1]) was greater than 485 µM; at TCPTP (setting [2]) it was greater than 485 µM; on CD45 (setting [3]), 120 µM.
For the compound `[Na+].[Na+].[Na+].[O]=[V]([O-])([O-])[O-]` [Na3VO4, reference compound], the “IC50 TCPTP” value against TCPTP (setting [4]) is 0.44 ± 0.11 µg/mL. Besides, on CD45 (setting [4]), the “IC50 CD45” value was determined as 0.36 ± 0.09 µg/mL.
